According to US20200360386A1, “Inhibitors of HSP90, PI3-Kinase, Proteasome, HDAC, and P97 Pathways for Selective Removal of Senescent Cells in the Treatment of Age Related Conditions” (Unity Biotechnology, Inc., priority 2017, published 2020):

Key:
Type in all cases: in vivo, mouse
[1] = tested on: 3MR or INK-ATTAC mice exposed to cigarette smoke; assay: Cigarette smoke induced COPD model, oxygen saturation by pulse oximeter; settings: after two months of cigarette smoke exposure, compared with untreated controls; FIG. 6
Experimental: As a model for chronic obstructive pulmonary disease (COPD), mice were exposed to cigarette smoke. The effect of a senolytic agent on the mice exposed to smoke is assessed by senescent cell clearance, lung function, and histopathology.
The mice used in this study include the 3MR strain, described in US 2017/0027139 A1 and in Demaria et al., Dev Cell. 2014 Dec. 22; 31 (6): 722-733. The 3MR mouse has a transgene encoding thymidine kinase that converts the prodrug gancyclovir (GCV) to a compound that is lethal to cells. The enzyme in the transgene is placed under control of the p16 promoter, which causes it to be specifically expressed in senescent cells. Treatment of the mice with GCV eliminates senescent cells.
Other mice used in this study include the INK-ATTAC strain, described in US 2015/0296755 A1 and in Baker et al., Nature 2011 Nov. 2; 479 (7372):232-236. The INK-ATTAC mouse has a transgene encoding switchable caspase 8 under control of the p16 promoter. The caspase 8 can be activated by treating the mice with the switch compound AP20187, whereupon the caspase 8 directly induces apoptosis in senescent cells, eliminating them from the mouse.
To conduct the experiment, six-week-old 3MR (n=35) or INK-ATTAC (n=35) mice were chronically exposed to cigarette smoke generated from a Teague TE-10 system, an automatically-controlled cigarette smoking machine that produces a combination of side-stream and mainstream cigarette smoke in a chamber, which is transported to a collecting and mixing chamber where varying amounts of air is mixed with the smoke mixture. The COPD protocol was adapted from the COPD core facility at Johns Hopkins University (Rangasamy et al., 2004, J. Clin. Invest. 114:1248-1259; Yao et al., 2012, J. Clin. Invest. 122:2032-2045).
Mice received a total of 6 hours of cigarette smoke exposure per day, 5 days a week for 6 months. Each lighted cigarette (3R4F research cigarettes containing 10.9 mg of total particulate matter (TPM), 9.4 mg of tar, and 0.726 mg of nicotine, and 11.9 mg carbon monoxide per cigarette [University of Kentucky, Lexington, Ky.]) was puffed for 2 seconds and once every minute for a total of 8 puffs, with the flow rate of 1.05 L/min, to provide a standard puff of 35 cm^3. […] The smoke chamber atmosphere was monitored for total suspended particulates (80-120 mg/m3) and carbon monoxide (350 ppm). […]
After two months of cigarette smoke (CS) exposure, lung function was assessed by monitoring oxygen saturation using the MouseSTAT PhysioSuite™ pulse oximeter (Kent Scientific). […] Mice were monitored for 30 seconds and the average peripheral capillary oxygen saturation (SpO2) measurement over this duration was calculated.

[2] = tested on: C57BL/6J mice, osteoarthritis induced by ACL surgery; assay: Osteoarthritis model: anterior cruciate ligament surgery, intra-articular treatment
Experimental: The model was implemented as follows. C57BL/6J mice underwent surgery to cut the anterior cruciate ligament of one rear limb to induce osteoarthritis in the joint of that limb. During week 3 and week 4 post-surgery, the mice were treated with 5.8 μg of Nutlin-3A (n=7) per operated knee by intra-articular injection, q.o.d. for 2 weeks. At the end of 4 weeks post-surgery, joints of the mice were monitored for presence of senescent cells, assessed for function, monitored for markers of inflammation, and underwent histological assessment.
Two control groups of mice were included in the studies performed: one group comprising C57BL/6J or 3MR mice that had undergone a sham surgery (n=3) (i.e., surgical procedures followed except for cutting the ACL) and intra-articular injections of vehicle parallel to the GCV (gancyclovir) treated group; and one group comprising C57BL/6J or 3MR mice that had undergone an ACL surgery and received intra-articular injections of vehicle (n=5) parallel to the GCV-treated group. RNA from the operated joints of mice from the Nutlin-3A treated mice was analyzed for expression of SASP factors (mmp3, IL-6) and senescence markers (p16). qRT-PCR was performed to detect mRNA levels.
Function of the limbs was assessed 4 weeks post-surgery by a weight bearing test to determine which leg the mice favored. The mice were allowed to acclimate to the chamber on at least three occasions prior to taking measurements. Mice were maneuvered inside the chamber to stand with one hind paw on each scale. The weight that was placed on each hind limb was measured over a three second period. At least three separate measurements were made for each animal at each time point. The results were expressed as the percentage of the weight placed on the operated limb versus the contralateral unoperated limb.

[3] = tested on: LDLR-/- mice fed a high fat diet; assay: Atherosclerosis model: LDLR-/- mice on high fat diet, systemic treatment
Experimental: This example illustrates the testing of an MDM2 inhibitor in a mouse model for treatment of atherosclerosis. The test compounds are administered systemically rather than locally. The model is done in an LDLR−/− strain of mice, which are deficient in the receptor for low-density lipoprotein. The experiments described here can be adapted mutatis mutandis to test and develop other types of inhibitors for use in clinical therapy.
Two groups of LDLR−/− mice (10 weeks) are fed a high fat diet (HFD) (Harlan Teklad TD.88137) having 42% calories from fat, beginning at Week 0 and throughout the study. Two groups of LDLR−/− mice (10 weeks) are fed normal chow (−HFD). From weeks 0-2, one group of HFD mice and −HFD mice are treated with Nutlin-3A (25 mg/kg, intraperitoneally). One treatment cycle is 14 days treatment, 14 days off. Vehicle is administered to one group of HFD mice and one group of −HFD mice. At week 4 (timepoint 1), one group of mice are sacrificed and to assess presence of senescent cells in the plaques. For the some of the remaining mice, Nutlin-3A and vehicle administration is repeated from weeks 4-6. At week 8 (timepoint 2), the mice are sacrificed and to assess presence of senescent cells in the plaques. The remaining mice are treated with Nutlin-3A or vehicle from weeks 8-10. At week 12 (timepoint 3), the mice are sacrificed and to assess the level of plaque and the number of senescent cells in the plaques.
Plasma lipid levels were measured in LDLR−/− mice fed a HFD and treated with Nutlin-3A or vehicle at timepoint 1 as compared with mice fed a −HFD (n=3 per group). Plasma was collected mid-afternoon and analyzed for circulating lipids and lipoproteins.
At the end of timepoint 1, LDLR−/− mice fed a HFD and treated with Nutlin-3A or vehicle were sacrificed (n=3, all groups), and the aortic arches were dissected for RT-PCR analysis of SASP factors and senescent cell markers. Values were normalized to GAPDH and expressed as fold-change versus age-matched, vehicle-treated LDLR−/− mice on a normal diet.
At the end of timepoint 2, LDLR−/− mice fed a HFD and treated with Nutlin-3A or vehicle (n=3 for all groups) were sacrificed, and aortic arches were dissected for RT-PCR analysis of SASP factors and senescent cell markers. Values were normalized to GAPDH and expressed as fold-change versus age-matched, vehicle-treated LDLR−/− mice on a normal diet.
At the end of timepoint 3, LDLR−/− mice fed a HFD and treated with Nutlin-3A or vehicle (n=3 for all groups) were sacrificed, and aortas were dissected and stained with Sudan IV to detect the presence of lipid. Body composition of the mice was analyzed by MRI, and circulating blood cells were counted by Hemavet™.

CC1(C)CCC(c2ccc(Cl)cc2)=C(CN2CCN(c3ccc(C(=O)NS(=O)(=O)c4ccc(N[C@H](CCN5CCOCC5)CSc5ccccc5)c(S(=O)(=O)C(F)(F)F)c4)cc3)CC2)C1 [ABT-263, Navitoclax]
SpO2 levels (peripheral capillary oxygen saturation) [1]: statistically significant increases

CC[C@H](C(=O)N1CCCC[C@H]1C(=O)O[C@H](CCc1ccc(OC)c(OC)c1)c1cccc(OCC(=O)NCC(CNC(=O)COc2cccc([C@@H](CCc3ccc(OC)c(OC)c3)OC(=O)[C@@H]3CCCCN3C(=O)[C@@H](CC)c3cc(OC)c(OC)c(OC)c3)c2)CN(C)C)c1)c1cc(OC)c(OC)c(OC)c1 [AP2018]
SpO2 levels (peripheral capillary oxygen saturation) [1]: statistically significant increases

COc1ccc(C2=N[C@@H](c3ccc(Cl)cc3)[C@@H](c3ccc(Cl)cc3)N2C(=O)N2CCNC(=O)C2)c(OC(C)C)c1 [Nutlin-3A]
SpO2 levels (peripheral capillary oxygen saturation) [1]: statistically significant increases
expression of p16 in the joint tissue (qRT-PCR) ([2]; 5.8 μg per operated knee intra-articular q.o.d. for 2 weeks, 4 weeks post-surgery, FIG. 3A): reduced the expression back to below the level of the controls
expression of IL-6 in the joint tissue (qRT-PCR) ([2]; 5.8 μg per operated knee intra-articular q.o.d. for 2 weeks, 4 weeks post-surgery, FIG. 3B): reduced the expression back to below the level of the controls
expression of MMP13 in the joint tissue (qRT-PCR) ([2]; 5.8 μg per operated knee intra-articular q.o.d. for 2 weeks, 4 weeks post-surgery, FIG. 3C): reduced the expression back to below the level of the controls
weight bearing test: favoring of the unoperated hind limb over the operated hind limb ([2]; 4 weeks post-surgery, FIG. 4A): abrogated this effect
histopathology: destruction of the proteoglycan layer of the joint ([2]; FIGS. 4B-4D): completely abrogated this effect
expression of SASP factors and senescent cell markers in aortic arch (RT-PCR): MMP3, MMP13, PAI1, p21, IGFBP2, IL-1A, IL-1B ([3]; 25 mg/kg intraperitoneally, timepoint 1 (week 4), after one treatment cycle): reduced expression of several SASP factors and senescent cell markers
expression of SASP factors and senescent cell markers in aortic arch (RT-PCR) ([3]; 25 mg/kg intraperitoneally, timepoint 2 (week 8), multiple treatment cycles): reduced expression of most markers
reduction of surface area covered by plaques in the descending aorta ([3]; 25 mg/kg intraperitoneally, timepoint 3 (week 12), Sudan IV staining, FIG. 7): about 45%
platelet and lymphocyte counts versus vehicle treated mice ([3]; timepoint 3 (week 12), Hemavet): equivalent
mass and body fat composition ([3]; timepoint 3 (week 12), MRI, mice fed the high fat diet): decreased mass and body fat composition

Nc1nc(O)c2ncn(COC(CO)CO)c2n1 [ganciclovir]
SpO2 levels (peripheral capillary oxygen saturation) [1]: statistically significant increases
